Reference: US20150360047A1, “Cosmetic Biophotonic Compositions” (KLOX TECHNOLOGIES INC., priority 2012, published 2015)

Assay: Absorption/emission spectra and photobleaching of chromophores and chromophore combinations
Assay type: physicochemical
Procedure: The photodynamic properties of (i) Fluorescein sodium salt at about 0.09 mg/mL, (ii) Eosin Y at about 0.305 mg/mL, and (iii) a mixture of Fluorescein sodium salt at about 0.09 mg/mL and Eosin Y at about 0.305 mg/mL, all in a gel (12% carbamide) were evaluated. A flexstation 384 II spectrophotometer was used to measure emitted fluorescence with the following parameters: mode fluorescence, excitation 460 nm, emission spectra 465-750 nm. The absorbance was read using a synergy HT microplate reader: mode absorbance; spectra between 300-650 nm. The absorption and emission spectra are shown in FIGS. 8A and 8B which indicate an energy transfer between the chromophores in the combination. It is to be reasonably inferred that this energy transfer can also occur in biophotonic compositions of the present disclosure. […]
The photodynamic properties of (i) Fluorescein sodium salt at 0.18 mg/mL final concentration, (ii) Eosin Y at about 0.305 mg/mL, and (iii) a mixture of Fluorescein sodium salt at about 0.18 mg/mL and Eosin Y at about 0.305 mg/mL in an aqueous solution were evaluated. A flexstation 384 II spectrophotometer was used to measure emitted fluorescence with the following parameters: mode fluorescence, excitation 460 nm, emission spectra 465-750 nm. The absorbance was read using a synergy HT microplate reader: mode absorbance; spectra between 300-650 nm. […]

Photobleaching during illumination (with Fluorescein in aqueous solution, Example 4): Photobleaching of Eosin Y was observed | Photobleaching during illumination (with Fluorescein in gel (12% carbamide), Example 3): Photobleaching of Eosin Y was observed
SMILES: O=C([O-])c1ccccc1-c1c2cc(Br)c(=O)c(Br)c-2oc2c(Br)c([O-])c(Br)cc12.[Na+].[Na+] [Eosin Y]
